Values quoted from earlier work in patent publication US6949260B2, “Method for treatment of inflammation and pain in mammals” (Metagenics, Inc., priority 2000, dated 2005).

Key:
human platelet = settings: induced by arachidonic acid, adrenaline and collagen
[1] = tested on: thromboxane B2 production; settings: in vitro

COc1cc(/C=C/C(=O)CC(=O)/C=C/c2ccc(O)c(OC)c2)ccc1O [Curcumin]
inhibition of human platelet aggregation (human platelet): inhibit human platelet aggregation | thromboxane B2 production from arachidonic acid [1]: inhibits thromboxane B2 production
